Experimental findings from patent publication US20090246169A1, “INDOLOPYRIDINES AS EG5 KINESIN MODULATORS” (priority 2006, published 2009) are described below.

Structures are written as SMILES. Some results are limits rather than exact numbers.

For this test, the system named is RKO p21 colon adenocarcinoma cells, uninduced (proliferating). Put plainly: Alamar Blue cell viability assay, RKO p21 uninduced (proliferating). Format: cell-based. The note with it: Homo sapiens; anti-proliferative/cytotoxic activity, 72 hours, without Ponasterone A; read-out: −log EC50 [mol/l] RKO p21 uninduced (proliferating) (converted). As for the experimental part: The anti-proliferative/cytotoxic activity of the compounds described herein can be tested on subclones of RKO human colon adenocarcinoma cells (Schmidt et al., Oncogene 19, 2423-2429; 2000) using the Alamar Blue cell viability assay (described in O'Brien et al. Eur J Biochem 267, 5421-5426, 2000). The compounds are dissolved as 10 mM solutions in DMSO and subsequently diluted in semi-logarithmic steps. DMSO dilutions are further diluted 1:100 into Dulbecco's modified Eagle's medium (DMEM) containing 10% fetal calf serum to a final concentration twice as much as the final concentration in the test. RKO subclones are seeded into 96 well flat bottom plates at a density of 4000 cells per well in a volume of 50 μl per well. 24 hours after seeding the 50 μl each of the compound dilutions in DMEM medium are added into each well of the 96 well plate. Each compound dilution is tested as triplicates. Wells containing untreated control cells are filled with 50 μl DMEM medium containing 1% DMSO. The cells are then incubated with the substances for 72 hours at 37° C. in a humidified atmosphere containing 5% carbon dioxide. To determine the viability of the cells, 10 μl of an Alamar Blue solution (Biosource) are added and the fluorescence is measured at an extinction of 544 nm and an emission of 590 nm. For the calculation of the cell viability the emission value from untreated cells is set as 100% viability and the emission rates of treated cells are set in relation to the values of untreated cells. Viabilities are expressed as % values. The Graphpad Prism program is used for the calculation of EC50 values for anti-proliferative/cytotoxic activity out of the obtained dose-response curves.
To determine the cell cycle specific mode of action, subclones of RKO colon adenocarcinoma cells (RKOp21 or RKOp27 as described by Schmidt et al. in Oncogene 19, 2423-2429; 2000) are seeded into 96 well flat bottom plates at a density of 16000 cells per well in a volume of 50 μl per well in DMEM growth medium with 10% FCS containing 10 μM Ponasterone A. 24 hours after seeding the 50 μl each of the compound dilutions in DMEM medium are added into each well of the 96-well plate. Each compound dilution is tested as triplicates. Wells containing untreated control cells are filled with 50 μl DMEM medium containing 1% DMSO. The cells are then incubated with the substances for 72 hours at 37° C. in a humidified atmosphere containing 5% carbon dioxide. To determine the viability of the cells, 10 μl of an Alamar Blue solution (Biosource) are added and the fluorescence is measured at an extinction of 544 nm and an emission of 590 nm. For the calculation of the cell viability the emission value from untreated cells is set as 100% viability and the emission rates of treated cells are set in relation to the values of untreated cells. Viabilities are expressed as % values. The Graphpad Prism program (GraphPad Software, Inc) is used for the calculation of EC50 values out of the obtained dose-response curves. Viability is compared of proliferating cells grown in the absence of the inducer Ponasterone A, versus viability of cells arrested by the expression of ectopic p27Kip1 induced by Ponasterone A.
Representative values for anti-proliferation/cytotoxicity [measured as −log EC50 (mol/l)] determined in the aforementioned assays follow from the following tables B1 and B2, in which the numbers of the compounds correspond to the numbers of the examples.
(In general: Alamar Blue is a resazurin reagent that responds to reducing activity.)
Take `COc1ccc2[nH]c3c(c2c1)C[C@@]1(C)C(=O)N(CCCN(C)C)C(=O)N1[C@@H]3c1ccccc1` (racemic) [Example 45, (3aSR, 10RS)-2-(3-Dimethylamino-propyl)-6-methoxy-3a-methyl-10-phenyl-3a,4,9,10-tetrahydro-2,9,10a-triaza-cyclopenta[b] fluorene-1,3-dione]: the EC50 is not above 1 µM.
In the case of `COc1ccc2[nH]c3c(c2c1)C[C@@]1(C)C(=O)N(CCCN(C)CCO)C(=O)N1[C@@H]3c1ccccc1` (racemic) [Example 46, (3aSR, 10RS)-2-{3-[(2-Hydroxy-ethyl)-methyl-amino]-propyl}-6-methoxy-3a-methyl-10-phenyl-3a,4,9,10-tetrahydro-2,9,10a-triaza-cyclopenta[b]fluorene-1,3-dione], the EC50 is not above 1 µM.
In the case of `COc1ccc2[nH]c3c(c2c1)C[C@@]1(C)C(=O)N(CCN2CCN(C(C)=O)CC2)C(=O)N1[C@@H]3c1ccccc1` (racemic) [Example 47, (3aSR, 10RS)-2-[2-(4-Acetyl-piperazin-1-yl)-ethyl]-6-methoxy-3a-methyl-10-phenyl-3a,4,9,10-tetrahydro-2,9,10a-triaza-cyclopenta[b] fluorene-1,3-dione], the EC50 is not above 1 µM.
`COc1ccc2[nH]c3c(c2c1)C[C@@]1(C)C(=O)N(CCNC2CC2)C(=O)N1[C@@H]3c1ccccc1` (racemic) [Example 49, (3aSR, 10RS)-2-(2-Cyclo-propylamino-ethyl)-6-methoxy-3a-methyl-10-phenyl-3a,4,9,10-tetrahydro-2,9,10a-triaza-cyclopenta [b]fluorene-1,3-dione]: the EC50 was not above 1 µM.
As for `COc1ccc2[nH]c3c(c2c1)C[C@@]1(C)C(=O)N(CCCNC(C)C)C(=O)N1[C@@H]3c1ccccc1` (racemic) [Example 51, (3aSR, 10RS)-2-(3-Isopropylamino-propyl)-6-methoxy-3a-methyl-10-phenyl-3a,4,9,10-tetrahydro-2,9,10a-triaza-cyclopenta[b] fluorene-1,3-dione], the EC50 is not above 1 µM.
Consider `COc1ccc2[nH]c3c(c2c1)C[C@@]1(C)C(=O)N(CCCNCC(C)C)C(=O)N1[C@@H]3c1ccccc1` (racemic) [Example 52, (3aSR, 10RS)-2-(3-Isobutylamino-propyl)-6-methoxy-3a-methyl-10-phenyl-3a,4,9,10-tetrahydro-2,9,10a-triaza-cyclopenta[b] fluorene-1,3-dione], for which the EC50 was not above 1 µM.
Turning to `CCN(C)CCCN1C(=O)N2[C@H](c3ccccc3)c3[nH]c4ccc(OC)cc4c3C[C@@]2(C)C1=O` (racemic) [Example 53, (3aSR, 10RS)-2-[3-(Ethyl-methyl-amino)-propyl]-6-methoxy-3a-methyl-10-phenyl-3a,4,9,10-tetrahydro-2,9,10a-triaza-cyclopenta[b] fluorene-1,3-dione], the EC50 is not above 1 µM.
In the case of `CCN(CC)CCCN1C(=O)N2[C@H](c3ccccc3)c3[nH]c4ccc(OC)cc4c3C[C@@]2(C)C1=O` (racemic) [Example 54, (3aSR, 10RS)-2-(3-Diethyl-amino-propyl)-6-methoxy-3a-methyl-10-phenyl-3a,4,9,10-tetrahydro-2,9,10a-triaza-cyclopenta[b]fluorene-1,3-dione], the EC50 was not above 1 µM.
As to `CCN(CCO)CCCN1C(=O)N2[C@H](c3ccccc3)c3[nH]c4ccc(OC)cc4c3C[C@@]2(C)C1=O` (racemic) [Example 55, (3aSR, 10RS)-2-{3-[Ethyl-(2-hydroxy-ethyl)-amino]-propyl}-6-methoxy-3a-methyl-10-phenyl-3a,4,9,10-tetrahydro-2,9,10a-triaza-cyclopenta[b]fluorene-1,3-dione], the EC50 was not above 1 µM.
As for `CCN(CCCN1C(=O)N2[C@H](c3ccccc3)c3[nH]c4ccc(OC)cc4c3C[C@@]2(C)C1=O)CCOC` (racemic) [Example 56, (3aSR, 10RS)-2-{3-[Ethyl-(2-methoxy-ethyl)-amino]-propyl}-6-methoxy-3a-methyl-10-phenyl-3a,4,9,10-tetrahydro-2,9,10a-triaza-cyclopenta[b]fluorene-1,3-dione], the EC50 was not above 1 µM.
The figure for `C=CCN(C)CCCN1C(=O)N2[C@H](c3ccccc3)c3[nH]c4ccc(OC)cc4c3C[C@@]2(C)C1=O` (racemic) [Example 57, (3aSR, 10RS)-2-[3-(Allyl-methyl-amino)-propyl]-6-methoxy-3a-methyl-10-phenyl-3a,4,9,10-tetrahydro-2,9,10a-triaza-cyclopenta[b] fluorene-1,3-dione] is not above 1 µM; for `COc1ccc2[nH]c3c(c2c1)C[C@@]1(C)C(=O)N(CCCN(C)C(C)C)C(=O)N1[C@@H]3c1ccccc1` (racemic) [Example 59, (3aSR, 10RS)-2-[3-(Isopropyl-methyl-amino)-propyl]-6-methoxy-3a-methyl-10-phenyl-3a,4,9,10-tetra-hydro-2,9,10a-triaza-cyclo-penta[b]fluorene-1,3-dione] it is not above 1 µM; for `COc1ccc2[nH]c3c(c2c1)C[C@@]1(C)C(=O)N(CCCN2CCC2)C(=O)N1[C@@H]3c1ccccc1` (racemic) [Example 60, (3aSR, 10RS)-2-(3-Azetidin-1-yl-propyl)-6-methoxy-3a-methyl-10-phenyl-3a,4,9,10-tetrahydro-2,9,10a-triaza-cyclopenta[b]fluorene-1,3-dione] it is not above 1 µM.
Turning to `COc1ccc2[nH]c3c(c2c1)C[C@@]1(C)C(=O)N(CCCN2CCOCC2)C(=O)N1[C@@H]3c1ccccc1` (racemic) [Example 61, (3aSR, 10RS)-6-Methoxy-3a-methyl-2-(3-morpholin-4-yl-propyl)-10-phenyl-3a,4,9,10-tetrahydro-2,9,10a-triaza-cyclopenta[b]fluorene-1,3-dione], the EC50 was not above 1 µM.
The figure for `COc1ccc2[nH]c3c(c2c1)C[C@@]1(C)C(=O)N(CCCN2CCCC2)C(=O)N1[C@@H]3c1ccccc1` (racemic) [Example 62, (3aSR, 10RS)-6-Methoxy-3a-methyl-10-phenyl-2-(3-pyrrolidin-1-yl-propyl)-3a,4,9,10-tetrahydro-2,9,10a-triaza-cyclopenta[b]fluorene-1,3-dione] is not above 1 µM; for `COc1ccc2[nH]c3c(c2c1)C[C@@]1(C)C(=O)N(CCCn2ccnc2)C(=O)N1[C@@H]3c1ccccc1` (racemic) [Example 63, (3aSR, 10RS)-2-(3-Imidazol-1-yl-propyl)-6-methoxy-3a-methyl-10-phenyl-3a,4,9,10-tetrahydro-2,9,10a-triaza-cyclopenta[b]fluorene-1,3-dione] it is not above 1 µM; for `COc1ccc2[nH]c3c(c2c1)C[C@@]1(C)C(=O)N(CCCN2CC=CC2)C(=O)N1[C@@H]3c1ccccc1` (racemic) [Example 64, (3aSR, 10RS)-2-[3-(2,5-Dihydro-pyrrol-1-yl)-propyl]-6-methoxy-3a-methyl-10-phenyl-3a,4,9,10-tetrahydro-2,9,10a-triaza-cyclopenta [b]fluorene-1,3-dione] it is not above 1 µM.
On to `COc1ccc2[nH]c3c(c2c1)C[C@@]1(C)C(=O)N(CCCN2CCCCC2)C(=O)N1[C@@H]3c1ccccc1` (racemic) [Example 65, (3aSR, 10RS)-6-Methoxy-3a-methyl-10-phenyl-2-(3-piperidin-1-yl-propyl)-3a,4,9,10-tetrahydro-2,9,10a-triaza-cyclopenta[b]fluorene-1,3-dione], for which the EC50 is not above 1 µM.
Consider `COc1ccc2[nH]c3c(c2c1)C[C@@]1(C)C(=O)N(CCCN2CCC(C)CC2)C(=O)N1[C@@H]3c1ccccc1` (racemic) [Example 66, (3aSR, 10RS)-6-Methoxy-3a-methyl-2-[3-(4-methyl-piperidin-1-yl)-propyl]-10-phenyl-3a,4,9,10-tetrahydro-2,9,10a-triaza-cyclopenta[b] fluorene-1,3-dione], for which the EC50 is not above 1 µM.
On to `COc1ccc2[nH]c3c(c2c1)C[C@@]1(C)C(=O)N(CCCN2CC=CCC2)C(=O)N1[C@@H]3c1ccccc1` (racemic) [Example 67, (3aSR, 10RS)-2-[3-(3,6-Dihydro-2H-pyridin-1-yl)-propyl]-6-methoxy-3a-methyl-10-phenyl-3a,4,9,10-tetra-hydro-2,9,10a-triaza-cyclo-penta[b]fluorene-1,3-dione], for which the EC50 was not above 1 µM.
